Literature values as cited in patent US12582620B2, “Oral solutions comprising lisdexamfetamine salts” (Adalvo Limited, priority 2019, dated 2026).

Tests used:
[1] = acidic versus alkaline conditions
[2] = not given; remark: listed apart in the source

For `C[C@@H](Cc1ccccc1)NC(=O)[C@@H](N)CCCCN` [Lisdexamfetamine dimesylate, (2S)-2,6-diamino-N-[(1S)-1-methyl-2-phenylethyl] hexanamide dimethanesulfonate], the Susceptibility to hydrolysis [1] is listed as “more hydrolysis-susceptible under alkaline conditions”, the Change of solubility (increasing the pH from 8 to 13) is listed as “modest reductions” and the Solubility (physiologically relevant pH range (pH 1-8), saturated buffered aqueous solutions) is listed as “highly soluble”. For the same compound, the Solubility in water [2] was “very soluble in water”.
